The source of these data is patent publication US7414047B2, “Piperazinyl and diazapanyl benzamides and benzthioamides” (Janssen Pharmaceutica N.V., priority 2002, dated 2008).

Where a name gives a salt, the structure may show the parent alone.

A word on the Ki: it is the equilibrium dissociation constant of an inhibitor or competing ligand from its target. The low end stands for tighter binding, the high end for weaker binding.

This assay concerns the target T1, human histamine H3 receptor (Homo sapiens, UniProt Q9Y5N1).
T1 construct: One microgram of supercoiled H3 receptor cDNA was added to the cells and mixed; expressed in transfected cells; membranes prepared from cell pellets
In words: {3H}-N-methylhistamine binding. As to the method: Transfection of Cells with Human Histamine Receptor
A 10 cm tissue culture dish with a confluent monolayer of SK-N-MC cells was split two days prior to transfection. Using sterile technique the media was removed and the cells were detached from the dish by the addition of trypsin. One fifth of the cells were then placed onto a new 10 cm dish. Cells were grown in a 37° C. incubator with 5% CO2 in Minimal Essential Media Eagle with 10%. Fetal Bovine Serum. After two days cells were approximately 80% confluent. These were removed from the dish with trypsin and pelleted in a clinical centrifuge. The pellet was then re-suspended in 400 μL complete media and transferred to an electroporation cuvette with a 0.4 cm gap between the electrodes. One microgram of supercoiled H3 receptor cDNA was added to the cells and mixed. The voltage for the electroporation was set at 0.25 kV, the capacitance was set at 960 μF. After electroporation the cells were diluted into 10 mL complete media and plated onto four 10 cm dishes. Because of the variability in the efficiency of electroporation, four different concentrations of cells were plated. The ratios used were; 1:20, 1:10, 1:5, with the remainder of the cells being added to the fourth dish. […] After 10 days dishes were analyzed for surviving colonies of cells. Dishes with well-isolated colonies were used. Cells from individual colonies were isolated and tested. SK-N-MC cells were used because they give efficient coupling for inhibition of adenylate cyclase. The clones that gave the most robust inhibition of adenylate cyclase in response to histamine were used for further study.
{^3H}-N-methylhistamine Binding
Cell pellets from histamine H3 receptor-expressing SK-N-MC cells were homogenized in 20 mM TrisHCl/0.5 mM EDTA. Supernatants from an 800 g spin were collected, recentrifuged at 30,000 g for 30 min. Pellets were re-homogenized in 50 mM Tris/5 mM EDTA (pH 7.4). […] Filters were dried, added to 4 mL scintillation cocktail and then counted on a liquid scintillation counter. Non-specific binding was defined with 10 μM histamine.

T1 sequence (Q9Y5N1 whole entry): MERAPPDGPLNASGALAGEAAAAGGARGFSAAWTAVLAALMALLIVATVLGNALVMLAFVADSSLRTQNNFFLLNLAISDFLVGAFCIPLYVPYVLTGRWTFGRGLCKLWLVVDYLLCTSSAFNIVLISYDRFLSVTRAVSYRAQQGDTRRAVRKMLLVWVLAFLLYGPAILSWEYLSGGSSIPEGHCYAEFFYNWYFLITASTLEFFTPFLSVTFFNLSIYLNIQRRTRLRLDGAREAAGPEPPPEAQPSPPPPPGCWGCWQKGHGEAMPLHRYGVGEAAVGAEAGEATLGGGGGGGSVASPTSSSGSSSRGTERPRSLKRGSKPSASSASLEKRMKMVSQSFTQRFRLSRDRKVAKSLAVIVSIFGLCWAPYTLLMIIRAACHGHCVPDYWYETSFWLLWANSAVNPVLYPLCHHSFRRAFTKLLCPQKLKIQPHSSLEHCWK

Regarding `CCC(C)N1CCN(C(=O)c2ccc(CN3CCOCC3)cc2)CC1` (stereo not shown) [Example 51, (4-sec-Butyl-piperazin-1-yl)-(4-morpholin-4-ylmethyl-phenyl)-methanone dihydrochloride], affinity was put at a Ki of 2 nM. For `CC(C)N1CCN(C(=O)c2ccc(CNc3ccccc3)cc2)CC1` [Example 59, (4-Isopropyl-piperazin-1-yl)-(4-phenylaminomethyl-phenyl)-methanone dihydrochloride], the Ki amounted to 23 nM. With `CC(C)N1CCN(C(=O)c2ccc(CNc3ccccn3)cc2)CC1` [Example 71, (4-Isopropyl-piperazin-1-yl)-[4-(pyridin-2-ylaminomethyl)-phenyl]-methanone], the Ki is 4 nM. As for `COCC(C)NCc1ccc(C(=O)N2CCN(C(C)C)CC2)cc1` (stereo not shown) [Example 72, (4-Isopropyl-piperazin-1-yl)-{4-[(2-methoxy-1-methyl-ethylamino)-methyl]-phenyl}-methanone], the Ki stood at 3 nM. Then `CC(C)N1CCN(C(=O)c2ccc(CNc3cc(C(F)(F)F)ccn3)cc2)CC1` [Example 44, (4-Isopropyl-piperazin-1-yl)-{4-{4-trifluoromethyl-pyridin-2-ylamino)-methyl}-phenyl}-methanone dihydrochloride], with 85 nM; and `CCC(C)N1CCN(C(=O)c2ccc(CN3CCCCC3)cc2)CC1` (stereo not shown) [Example 28, (4-sec-Butyl-piperazin-1-yl)-(4-piperidin-1-ylmethyl-phenyl)-methanone], with 0.9 nM; and `CCC(C)N1CCN(C(=O)c2ccc(CNc3ccccc3)cc2)CC1` (stereo not shown) [Example 29, (4-sec-Butyl-piperazin-1-yl)-(4-phenylaminomethyl-phenyl)-methanone], with 38 nM. The compound `CN1CCN(C(=O)c2ccc(CN3CCCCC3)cc2)CC1` [Example 54, (4-Methyl-piperazin-1-yl)-(4-piperidin-1-ylmethyl-phenyl)-methanone dihydrochloride] came in with a Ki of 24 nM. For the compound `CCCCCCC(C)N1CCN(C(=O)c2ccc(CN3CCCCC3)cc2)CC1` (stereo not shown) [Example 33, {4-(1-Methyl-heptyl)-piperazin-1-yl}-(4-piperidin-1-ylmethyl-phenyl)-methanone], the affinity corresponds to a Ki of 52 nM. As to `CCC(CC)N1CCN(C(=O)c2ccc(CN3CCOCC3)cc2)CC1` [Example 48, {4-(1-Ethyl-propyl)-piperazin-1-yl}-(4-morpholin-4-ylmethyl-phenyl)-methanone dihydrochloride], the affinity, expressed as Ki, was 1 nM. As for `CCC(CC)N1CCN(C(=O)c2ccc(CN3CCCC(C(F)(F)F)C3)cc2)CC1` (stereo not shown) [Example 49, {4-(1-Ethyl-propyl)-piperazin-1-yl}-{4-(3-trifluoromethyl-piperidin-1-ylmethyl)-phenyl}-methanone dihydrochloride], the figure is 4 nM; as for `CC(C)N1CCN(C(=O)c2cccc(CN3CCOCC3)c2)CC1` [Example 38, (4-Isopropyl-piperazin-1-yl)-(3-morpholin-4-ylmethyl-phenyl)-methanone], 180 nM; as for `CCC(C)N1CCN(C(=O)c2ccc(CN3CCCC(C(F)(F)F)C3)cc2)CC1` (stereo not shown) [Example 50, (4-sec-Butyl-piperazin-1-yl)-{4-(3-trifluoromethyl-piperidin-1-ylmethyl)-phenyl}-methanone dihydrochloride], 30 nM.
